# Data from patent US8629251B2, “Specific detection and quantification of phosphatidic acid using an Arabidopsis trigalactosyldiacylglycerol-4 (TGD4) protein” (Board of Trustees of Michigan State University, priority 2008, dated 2014).
# Legend:
# [1] = molecular target: T1, Arabidopsis TGD2, N-terminally truncated TGD2-dTMD-His (from Gly-119) (Arabidopsis thaliana, UniProt Q9LTR2); assay: Membrane lipid binding assay, TGD2-dTMD-His; conditions: lipid membranes, FIG. 8A
# T1 sequence (Q9LTR2 119-381): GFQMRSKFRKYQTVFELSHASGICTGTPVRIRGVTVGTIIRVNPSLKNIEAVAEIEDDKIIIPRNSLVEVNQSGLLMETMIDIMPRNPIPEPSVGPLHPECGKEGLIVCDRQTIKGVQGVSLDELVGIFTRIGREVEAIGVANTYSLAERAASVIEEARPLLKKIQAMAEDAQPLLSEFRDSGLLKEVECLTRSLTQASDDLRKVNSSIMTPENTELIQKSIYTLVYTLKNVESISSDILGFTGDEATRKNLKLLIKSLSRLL
# Protocol: Commercially available membrane strips prespotted with lipids were purchased. (Echelon Biosciences, Salt Lake City, Utah). Prokaryotic phosphatidylcholine and PA were also purchased (Avanti Polar Lipids). Prokaryotic monogalactolipid, digalactolipid, sulfolipid, and phosphatidylglycerol were purified from Synechocystis PCC6803 by TLC of lipid extracts. Eukaryotic monogalactolipid and digalactolipid was isolated from pea leaves.
# Approximately 5 μg of lipids were spotted onto a Hybond-C membrane (Amersham Pharmacia Biosciences). The membranes were first blocked with 3% BSA in TBST (10 mM Tris-HCl, pH 8.0/150 mM NaCl/0.1% Tween 20) for 1 h and incubated in 0.5 μg/ml TGD2 protein solution in the blocking buffer at 4° C. overnight. The blots were washed five times with TBST and soaked in 3% BSA in TBST with a Penta-His mouse monoclonal antibody (Qiagen) at a 1:1,000 dilution at room temperature overnight. The membranes were washed twice with TBST and soaked in 3% BSA in TBST with alkaline phosphatase-conjugated anti-mouse antibody (Jackson ImmunoResearch) at a 1:5,000 dilution for 1 hour at room temperature. After washing with TBST twice, the protein was detected by using the Immun-Star AP detection system (Bio-Rad).
# [2] = molecular target: T2, Arabidopsis TGD2, DsRed-TGD2C T9 (residues 221-250, SEQ ID NO:40) (Arabidopsis thaliana, UniProt Q9LTR2); assay: Liposome-association assay, TGD2C T9 (221-250); type: binding
# T2 sequence (Q9LTR2 221-250): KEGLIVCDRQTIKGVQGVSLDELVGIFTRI
# Protocol: (§1) The liposome association assay was performed as previously reported. (31). Briefly, lipids (dioleoyl-phosphatidylcholine, DOPC or dioleoyl-PA, DOPA) were incubated in TBS (50 mM Tris-HCl, pH 7; 0.1 M NaCl) at 37° C. for an hour followed by vigorous vortexing for 5 min. The liposomes were precipitated at 20,000 g and washed twice with ice-cold TBS.
# (§2) Liposomes (200 μg) were mixed with purified DsRed-TGD2 fusion protein and TBS to make a final 100 μL solution. The mixture was incubated at 30° C. for 30 min and washed twice with ice-cold TBS by centrifugation at 20,000 g at 4° C. The liposome pellet mixed with sample buffer was analyzed by SDS-PAGE (28). Immuno-detection of the His-tagged protein was accomplished using the above mentioned Penta-His antibody at 1:15,000 and the anti mouse antibody at 1:75,000 dilution.
# (§3) The protein band was visualized by chemiluminescent detection kit from Sigma. The autoradiography film was scanned, distinct protein bands were quantified using computer software Multi Gauge V3.0 (Fujifilm USA, Valhalla, N.Y.) and resulted data were plotted and analyzed by OriginPro8 (Origin lab corporation, Northampton, Mass.).
# [3] = molecular target: Arabidopsis TGD2, DsRed-TGD2C D2 (Δ221-225, SEQ ID NO:46) (Arabidopsis thaliana, UniProt Q9LTR2, DEL221-225); assay: Liposome-association assay, TGD2C D2 (Δ221-225); type: binding; conditions: FIG. 3C
# Sequence of Arabidopsis TGD2, DsRed-TGD2C D2 (Δ221-225, SEQ ID NO:46) (Q9LTR2 other isoform, or with tags, fused parts or gaps DEL221-225): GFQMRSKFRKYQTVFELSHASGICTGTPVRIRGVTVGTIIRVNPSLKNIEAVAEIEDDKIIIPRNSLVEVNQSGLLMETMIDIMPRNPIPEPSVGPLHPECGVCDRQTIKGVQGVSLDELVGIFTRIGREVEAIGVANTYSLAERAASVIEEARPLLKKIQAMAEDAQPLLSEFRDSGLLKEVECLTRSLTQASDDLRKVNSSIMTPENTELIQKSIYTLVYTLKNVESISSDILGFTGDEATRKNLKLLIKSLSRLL
# Protocol: as §1, §2, §3
# [4] = molecular target: T3, Arabidopsis TGD2, DsRed-TGD2C T5 (residues 119-300, SEQ ID NO:28) (Arabidopsis thaliana, UniProt Q9LTR2); assay: Liposome-association assay, TGD2C T5 (119-300); type: binding; conditions: FIG. 3C
# T3 sequence (Q9LTR2 119-300): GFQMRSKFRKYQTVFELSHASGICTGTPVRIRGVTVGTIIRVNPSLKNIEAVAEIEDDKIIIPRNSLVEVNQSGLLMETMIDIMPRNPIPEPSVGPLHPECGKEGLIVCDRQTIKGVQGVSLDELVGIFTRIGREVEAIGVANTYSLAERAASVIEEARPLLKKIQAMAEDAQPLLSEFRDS
# Protocol: as §1, §2, §3
# [5] = molecular target: Arabidopsis TGD2, DsRed-TGD2C D1 (Δ221-250, SEQ ID NO:43) (Arabidopsis thaliana, UniProt Q9LTR2, DEL221-250); assay: Liposome-association assay, TGD2C D1 (Δ221-250); type: binding; conditions: FIG. 3C
# Sequence of Arabidopsis TGD2, DsRed-TGD2C D1 (Δ221-250, SEQ ID NO:43) (Q9LTR2 other isoform, or with tags, fused parts or gaps DEL221-250): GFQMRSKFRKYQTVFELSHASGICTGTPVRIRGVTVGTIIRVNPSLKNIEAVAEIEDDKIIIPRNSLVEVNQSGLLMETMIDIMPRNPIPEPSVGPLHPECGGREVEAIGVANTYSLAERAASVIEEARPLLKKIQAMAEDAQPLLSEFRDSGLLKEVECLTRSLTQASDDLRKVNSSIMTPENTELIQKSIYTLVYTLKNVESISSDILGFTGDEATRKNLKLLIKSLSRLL
# Protocol: as §1, §2, §3
smiles,measurement,setting,value
"CCCCCCCC/C=C\CCCCCCCC(=O)OC[C@H](COP(=O)(O)O)OC(=O)CCCCCCC/C=C\CCCCCCCC [PA, phosphatidic acid]",binding of lipids,[1],bound
same,PA binding,[2],no interaction to PA was detected
same,PA binding,[3],decreased binding activity dramatically
same,PA binding,[4],strong binding
same,PA binding,[5],did not seem to affect PA binding
